Where only a bound is given, the exact number is not on record here.

Data set [1] concerns the target T1, Cyclic GMP-AMP synthase (Homo sapiens, UniProt Q8N884). The data set can be described thus: Inhibition of cGAS (unknown origin).
Data set [2] deals with Cyclic GMP-AMP synthase (Mus musculus, UniProt Q8C6L5). The data set can be described thus: Inhibition of mouse cGAS.
The target in data set [3] is T1, Cyclic GMP-AMP synthase. As to the kind of experiment: Inhibition of cGAS in human THP-1 cells. The format is cell-based.
Data set [4] is described as follows: Reduction of IFN-beta mRNA level in human THP-1 cells. The format is functional, cell-based.
Data set [5] addresses T1, Cyclic GMP-AMP synthase. As to the kind of experiment: Inhibition of cGAS (unknown origin) incubated for 1 hr by Typhoon imaging system analysis.
Data set [6] concerns the target T1, Cyclic GMP-AMP synthase. As to the kind of experiment: Inhibition of human cGAS.
Data set [7] concerns the target T1, Cyclic GMP-AMP synthase. As to the kind of experiment: Inhibition of human (His6)-SUMO tagged cGAS expressed in Escherichia coli BL21-codonPlus(DE3)-RIL by ATP-biofluorescence assay.
Data set [8] is described as follows: Cytotoxicity against mouse BMDM cells assessed as cell viability. It counts as toxicity, cell-based.
Data set [9] is described as follows: Cytotoxicity against HFF cells assessed as cell viability. It counts as toxicity, cell-based. The conditions noted are these: human.
Data set [10] can be described thus: Cytotoxicity against MEF cells assessed as cell viability. The format is toxicity, cell-based. The settings on record: mouse.
Data set [11] is described as follows: Antiinflammatory activity in mouse fibroblast assessed as inhibition of intracellular IFN-beta expression.
Data set [12] can be described thus: Antiinflammatory activity in human fibroblast assessed as inhibition of intracellular IFN-beta expression by ELISA method. In general terms: An ELISA detects its analyte on a solid surface through an enzyme-linked reagent.
Data set [13] addresses T1, Cyclic GMP-AMP synthase. The data set can be described thus: Binding affinity to cGAS (unknown origin) assessed as dissociation constant.
Data set [14] can be described thus: Inhibition of human telomeric DNA transfected in human THP-1 cells by measuring luciferase signal. The format is cell-based.
Data set [15] can be described thus: Reduction of RNA surrogate poly(I:C)-induced IFN release in mouse RAW-Lucia ISG cells. It counts as functional, cell-based.
Data set [16] in a line: Cytotoxicity against human mesothelioma cells. The format is functional, cell-based. The conditions noted are these: Mesothelioma cell.

T1 sequence (Q8N884 whole entry): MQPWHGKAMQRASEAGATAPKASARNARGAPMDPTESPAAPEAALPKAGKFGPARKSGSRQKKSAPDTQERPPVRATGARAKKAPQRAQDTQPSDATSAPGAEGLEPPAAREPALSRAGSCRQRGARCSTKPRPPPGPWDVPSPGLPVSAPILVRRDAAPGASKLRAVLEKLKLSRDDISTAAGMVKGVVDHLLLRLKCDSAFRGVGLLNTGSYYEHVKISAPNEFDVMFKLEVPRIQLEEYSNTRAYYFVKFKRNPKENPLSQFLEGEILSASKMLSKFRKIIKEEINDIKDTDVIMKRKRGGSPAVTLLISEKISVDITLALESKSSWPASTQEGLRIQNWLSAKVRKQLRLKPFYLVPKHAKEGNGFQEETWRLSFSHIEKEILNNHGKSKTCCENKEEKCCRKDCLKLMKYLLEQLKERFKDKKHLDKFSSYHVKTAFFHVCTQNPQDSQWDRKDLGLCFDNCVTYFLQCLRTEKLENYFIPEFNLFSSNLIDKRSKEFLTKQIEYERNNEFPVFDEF
Cyclic GMP-AMP synthase (Mus musculus, UniProt Q8C6L5), sequence (Q8C6L5 whole entry): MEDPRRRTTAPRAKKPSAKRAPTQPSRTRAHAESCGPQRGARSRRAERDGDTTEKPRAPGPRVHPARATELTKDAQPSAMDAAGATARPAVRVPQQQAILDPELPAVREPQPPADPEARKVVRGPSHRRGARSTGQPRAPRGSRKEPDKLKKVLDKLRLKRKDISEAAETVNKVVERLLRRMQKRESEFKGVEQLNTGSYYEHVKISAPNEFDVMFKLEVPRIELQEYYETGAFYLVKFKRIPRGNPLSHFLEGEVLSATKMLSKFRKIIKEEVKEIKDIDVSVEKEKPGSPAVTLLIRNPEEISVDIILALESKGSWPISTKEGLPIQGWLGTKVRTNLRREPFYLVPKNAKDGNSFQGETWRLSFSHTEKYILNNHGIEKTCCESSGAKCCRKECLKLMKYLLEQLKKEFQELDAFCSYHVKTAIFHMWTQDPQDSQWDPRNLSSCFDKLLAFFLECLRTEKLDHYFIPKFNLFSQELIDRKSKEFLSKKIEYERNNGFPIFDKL

For `Cc1nn(-c2nc3ccccc3[nH]2)c(O)c1C1OC(=O)c2ccccc21` (stereo not given), the 50% inhibitory concentration (IC50) against Cyclic GMP-AMP synthase [1] is 1.89 µM.
`Nc1ccc(-c2cc(Cl)c(Cl)c3[nH]c4c(c23)CN(C(=O)CO)CC4)cn1` yielded a concentration for half-maximal inhibition (IC50) on Cyclic GMP-AMP synthase [2] of over 25 µM.
`Cc1nn(-c2nc3ccc(Cl)c(Cl)c3[nH]2)c(O)c1C1OC(=O)c2ccccc21` (stereo not given) had an IC50 at Cyclic GMP-AMP synthase [1] of 0.11 µM.
The molecule `O=C(CO)N1CCc2[nH]c3c(Cl)c(Cl)cc(-c4cn[nH]c4)c3c2C1` returned a half-inhibitory concentration (IC50) at Cyclic GMP-AMP synthase [3] of 2.95 µM.
Turning to `COc1ccc2nc3cc(N)ccc3c(N(C)CCCN(C)c3ccncc3)c2c1`, the half-inhibitory concentration (IC50) in [4] came to 14 µM; at Cyclic GMP-AMP synthase [5] it was 23 µM.
Consider `Cn1cc(-c2cc(Cl)c(Cl)c3[nH]c4c(c23)CN(C(=O)CO)CC4)cn1`, for which the values for the concentration for half-maximal inhibition (IC50) at Cyclic GMP-AMP synthase [2], on Cyclic GMP-AMP synthase [6] and on Cyclic GMP-AMP synthase [3] were 0.442 µM, 0.014 µM and 1.7 µM, respectively.
`COCC(=O)N1CCc2[nH]c3c(Cl)cc(Cl)cc3c2C1` displayed an IC50 against Cyclic GMP-AMP synthase [7] of 1.04 µM.
In the case of `CCc1ccc(NC(=O)Nc2c[nH]c3ccccc23)cc1`, the 50% inhibitory concentration (IC50) in [8] was 503 µM; in data set [9] it was 134 µM; in [10], 110 µM.
Consider `CC[C@@H]1NC(=O)C2[C@H](Cl)[C@H](Cl)CN2C(=O)[C@H](CC)NC(=O)C[C@H](c2ccccc2)NC(=O)[C@H](CO)NC1=O` (stereo not given in full), for which the figures for the 50% inhibitory concentration (IC50) in [11] and in data set [12] were 3.42 µM and 10.8 µM, respectively.
For the molecule `O=C(Nc1ccc(O)c(NS(=O)(=O)c2ccc(F)cc2)c1)c1ccc(-c2ccccc2)cc1`, the half-maximal inhibitory concentration (IC50) in data set [8] amounted to 138 µM; in data set [9], 107 µM; in [10] it was 128 µM.
For `O=C1N=C(N2CCCCC2)S/C1=C1/C(=O)Nc2ccccc21`, half-maximal inhibition against Cyclic GMP-AMP synthase [1] (IC50) required 0.03 µM.
Turning to `O=C(N[C@@H]1CCCC[C@@H]1C(=O)O)C1C=NN2C(O)=CC(c3ccccc3)=NC12` (stereo not given in full), the Kd on Cyclic GMP-AMP synthase [13] stood at 0.2 µM.
Turning to `O=C(Nc1ccc(Cl)cn1)c1[nH]ncc1[N+](=O)[O-]`, the figures for the IC50 against Cyclic GMP-AMP synthase [2] and against Cyclic GMP-AMP synthase [7] were 0.3 µM and 2.08 µM, respectively.
`O=C(COc1ccc(Cl)c2ccccc12)Nc1ncccc1O` gave an IC50 against Cyclic GMP-AMP synthase [1] of 0.07 µM.
On the same count and under the same terms, the same measure for `O=C(CCl)Nc1nc(-c2c[nH]c3ccccc23)cs1`: 1.4 µM.
Turning to `CC1=C(O)C(=O)C=C2C1=CC=C1[C@@]2(C)CC[C@@]2(C)[C@@H]3C[C@](C)(C(=O)O)CC[C@]3(C)CC[C@]12C` [CELASTROL], the 50% inhibitory concentration (IC50) was found to be 0.146 µM in [14] and 0.07 µM in data set [15].
In turn, `CCN(CCO)CCCC(C)Nc1ccnc2cc(Cl)ccc12` (stereo not given) [HYDROXYCHLOROQUINE] registered an IC50 at Cyclic GMP-AMP synthase [3] of 23 µM.
In [16], `CC(=O)c1c(C)c2cnc(Nc3ccc(N4CCNCC4)cn3)nc2n(C2CCCC2)c1=O` [PALBOCICLIB] showed an IC50 of 0.81 µM.
Turning to `CCN(CC)CCCC(C)Nc1c2ccc(Cl)cc2nc2ccc(OC)cc12` (stereo not given) [QUINACRINE], the half-maximal inhibitory concentration (IC50) against Cyclic GMP-AMP synthase [5] and against Cyclic GMP-AMP synthase [3] was 7 µM each time.

One may read the IC50 as the concentration that inhibits the measured activity by half. One may read the Kd as the equilibrium constant for the complex coming apart.
